Source: patent US20120034613A1, “Apparatus and Method for Testing Relationships Between Gene Expression and Physical Appearance of Skin” (NSE Products, Inc., priority 2010, published 2012)

Test system: EpidermFT™ Skin Model (EFT-400) full thickness skin cultures
Experiment: Affymetrix GeneChip HG U133 Plus 2.0 microarray global gene expression, agent-exposed vs untreated skin cultures
Format: cell-based, human
Conditions: 24 hr; for Direction / Fold change: Salicin 0.5%
[1] = 210424_s_at GOLGA8A /// GOLGA8B

For `OCc1ccccc1O[C@@H]1O[C@H](CO)[C@@H](O)[C@H](O)[C@H]1O` [Salicin, 2-(Hydroxymethyl)phenyl β-D-glucospyranoside], the “Fold change SPTLC2 (203128_at)” value (0.5% vs untreated, down) was 3.78, the “Fold change SPTLC2 (225095_at)” value (0.5% vs untreated, down) was 3.474 and the “Fold change ST14 (216905_s_at)” value (0.5% vs untreated, down) was 3.604. For the same molecule, the “Fold change STARD5 (213820_s_at)” value (0.5% vs untreated, down) was 3.436, the “Fold change STON2 (227461_at)” value (0.5% vs untreated, down) was 3.288 and the “Fold change STOX2 (231969_at)” value (0.5% vs untreated, down) was 3.5. The “Fold change STYK1 (220030_at)” value (0.5% vs untreated, down) was 3.584, the “Fold change SYK (207540_s_at)” value (0.5% vs untreated, down) was 3.163 and the “Fold change SYNE2 (202761_s_at)” value (0.5% vs untreated, down) was 3.62. The “Fold change SYTL1 (227134_at)” value (0.5% vs untreated, down) was 3.294, the “Fold change TACC2 (211382_s_at)” value (0.5% vs untreated, down) was 3.335 and the “Fold change TGFA (205015_s_at)” value (0.5% vs untreated, down) was 3.134. The “Fold change TGM3 (206004_at)” value (0.5% vs untreated, down) was 3.783, the “Fold change THBD (203887_s_at)” value (0.5% vs untreated, down) was 3.137 and the “Fold change TIAM1 (206409_at)” value (0.5% vs untreated, down) was 3.792. The “Fold change TM7SF3 (217974_at)” value (0.5% vs untreated, down) was 3.241, the “Fold change TMEM54 (225536_at)” value (0.5% vs untreated, down) was 3.354 and the “Fold change TMEM184A (1558281_a_at)” value (0.5% vs untreated, down) was 3.052. For the same molecule, the “Fold change TPD52L1 (203786_s_at)” value (0.5% vs untreated, down) was 3.196, the “Fold change TRIM7 (223694_at)” value (0.5% vs untreated, down) was 3.302 and the “Fold change TRIM7 (239694_at)” value (0.5% vs untreated, down) was 3.174. The “Fold change TRIM14 (203147_s_at)” value (0.5% vs untreated, down) was 3.14, the “Fold change TRIM14 (203148_s_at)” value (0.5% vs untreated, down) was 3.658 and the “Fold change TRIM25 (224806_at)” value (0.5% vs untreated, down) was 3.869. For the same molecule, the “Fold change TST (209605_at)” value (0.5% vs untreated, down) was 3.038, the “Fold change UBL3 (201534_s_at)” value (0.5% vs untreated, down) was 3.354 and the “Fold change UGT1A1 /// UGT1A10 /// UGT1A4 /// UGT1A6 /// UGT1A8 /// UGT1A9 (207126_x_at)” value (0.5% vs untreated, down) was 3.18. For the same molecule, the “Fold change UPK1B (210065_s_at)” value (0.5% vs untreated, down) was 3.412, the “Fold change USP2 (229337_at)” value (0.5% vs untreated, down) was 3.391 and the “Fold change USP6NL (238164_at)” value (0.5% vs untreated, down) was 3.19. The “Fold change VAMP8 (202546_at)” value (0.5% vs untreated, down) was 3.922, the “Fold change VWA5A (210102_at)” value (0.5% vs untreated, down) was 3.897 and the “Fold change WNT3 (229103_at)” value (0.5% vs untreated, down) was 3.218. For the same molecule, the “Fold change XG (1554062_at)” value (0.5% vs untreated, down) was 3.378, the “Fold change ZBTB7C (227782_at)” value (0.5% vs untreated, down) was 3.288 and the “Fold change ZNF91 (206059_at)” value (0.5% vs untreated, down) was 3.205. The Direction (63825_at ABHD2) was “up”, the Fold change (63825_at ABHD2) was 2.157 and the Direction (201467_s_at NQO1) was “up”. For the same molecule, the Fold change (201467_s_at NQO1) was 2.122, the Direction (201468_s_at NQO1) was “up” and the Fold change (201468_s_at NQO1) was 2.093. The Direction (202724_s_at FOXO1) was “up”, the Fold change (202724_s_at FOXO1) was 2.098 and the Direction (202952_s_at ADAM12) was “up”. For the same molecule, the Fold change (202952_s_at ADAM12) was 2.155, the Direction (203066_at GALNAC4S-6ST) was “up” and the Fold change (203066_at GALNAC4S-6ST) was 2.113. The Direction (203426_s_at IGFBP5) was “up”, the Fold change (203426_s_at IGFBP5) was 2.075 and the Direction (203518_at LYST) was “up”. For the same molecule, the Fold change (203518_at LYST) was 2.15, the Direction (203740_at MPHOSPH6) was “up” and the Fold change (203740_at MPHOSPH6) was 2.138. The Direction (203853_s_at GAB2) was “up”, the Fold change (203853_s_at GAB2) was 2.114 and the Direction (204115_at GNG11) was “up”. The Fold change (204115_at GNG11) was 2.108, the Direction (204396_s_at GRK5) was “up” and the Fold change (204396_s_at GRK5) was 2.087. The Direction (204420_at FOSL1) was “up”, the Fold change (204420_at FOSL1) was 2.141 and the Direction (204456_s_at GAS1) was “up”. For the same molecule, the Fold change (204456_s_at GAS1) was 2.089, the Direction (204742_s_at PDS5B) was “up” and the Fold change (204742_s_at PDS5B) was 2.139. The Direction (204790_at SMAD7) was “up”, the Fold change (204790_at SMAD7) was 2.151 and the Direction (205110_s_at FGF13) was “up”. The Fold change (205110_s_at FGF13) was 2.158, the Direction (208415_x_at ING1) was “up” and the Fold change (208415_x_at ING1) was 2.15. For the same molecule, the Direction (209436_at SPON1) was “up”, the Fold change (209436_at SPON1) was 2.145 and the Direction (210145_at PLA2G4A) was “up”. For the same molecule, the Fold change (210145_at PLA2G4A) was 2.072, the Direction (210355_at PTHLH) was “up” and the Fold change (210355_at PTHLH) was 2.144. The Direction [1] was “up”, the Fold change [1] was 2.127 and the Direction (210519_s_at NQO1) was “up”. The Fold change (210519_s_at NQO1) was 2.116, the Direction (210665_at TFPI) was “up” and the Fold change (210665_at TFPI) was 2.091. The Direction (210841_s_at NRP2) was “up”, the Fold change (210841_s_at NRP2) was 2.133 and the Direction (211725_s_at BID) was “up”. The Fold change (211725_s_at BID) was 2.092, the Direction (211981_at COL4A1) was “up” and the Fold change (211981_at COL4A1) was 2.121. The Direction (212298_at NRP1) was “up”, the Fold change (212298_at NRP1) was 2.073 and the Direction (212554_at CAP2) was “up”. The Fold change (212554_at CAP2) was 2.082, the Direction (213032_at NFIB) was “up” and the Fold change (213032_at NFIB) was 2.146. The Direction (213033_s_at NFIB) was “up”, the Fold change (213033_s_at NFIB) was 2.125 and the Direction (213093_at PRKCA) was “up”. The Fold change (213093_at PRKCA) was 2.125, the Direction (213790_at ADAM12) was “up” and the Fold change (213790_at ADAM12) was 2.085. For the same molecule, the Direction (213994_s_at SPON1) was “up”, the Fold change (213994_s_at SPON1) was 2.086 and the Direction (214014_at CDC42EP2) was “up”. The Fold change (214014_at CDC42EP2) was 2.119, the Direction (214211_at FTH1) was “up” and the Fold change (214211_at FTH1) was 2.154. For the same molecule, the Direction (214913_at ADAMTS3) was “up”, the Fold change (214913_at ADAMTS3) was 2.145 and the Direction (215012_at ZNF451) was “up”. The Fold change (215012_at ZNF451) was 2.114, the Direction (215785_s_at CYFIP2) was “up” and the Fold change (215785_s_at CYFIP2) was 2.107.
